Tested on: dendritic cells
Experiment: Dendritic cell maturation (CCR7 expression by flow cytometry) in co-culture with untreated or irradiated cancer cells
Assay type: cell-based
Conditions: DCs cultured with untreated (0Gy) or irradiated (8Gy) cancer cells; 0, 50 or 100 micromolar FCA; flow cytometry 24 hours after culturing
Method: FIG. 4 depicts CCR7 expression in DCs that were cultured with cancer cells, where the cancer cells were untreated (0Gy) or irradiated (8Gy). These co-cultures were treated with 0, 50, or 100 micromolar Fmoc-d-cyclohexylalanine (FCA) to inhibit DNAse1L3.
Dendritic cells were cultured (with untreated or irradiated cancer cells) and treated with increasing doses of FCA, an inhibitor of DNAse1L3 (FIG. 4). Cancer cells were co-cultured with dendritic cells and were treated with 0, 50, or 100 micromolar Fmoc-d-cyclohexylalanine (FCA) to inhibit DNAse1L3.
CCR7 expression on DCs was assessed by flow cytometry 24 hours after culturing.

## O=C(N[C@H](CC1CCCCC1)C(=O)O)OCC1c2ccccc2-c2ccccc21 [FCA, Fmoc-d-cyclohexylalanine]
  dendritic cell maturation assessed by upregulation of markers including CCR7: stimulates DC maturation

Reference: US12336973B2, “Cancer therapeutic compositions and methods targeting DNAse1L3” (Providence Health & Services—Oregon, priority 2020, dated 2025)
